# Test results taken from publication PMC4605435 (Journal of medicinal chemistry, 2015).
# Structures can show the parent of a compound that is named as a salt.
# Legend:
# [1] = target: T1, ACK1 (Homo sapiens, UniProt Q07912); test: ELISA-based ACK1 kinase inhibition; type: biochemical; conditions: for inhibition at 10 µM: read-out: % Inhibition @ 10 μM (ELISA); for ACK1 inhibition in ELISA: 10 μM
# [2] = system: VCaP cells; test: Cell growth, viable cells by trypan blue exclusion, VCaP; type: cell-based; conditions: Homo sapiens, 72 h, read-out: IC50 cell growth VCaP
# [3] = system: ACK1 autophosphorylation; conditions: read-out: IC50 inhibition of ACK1 autophosphorylation in intact cells; cited from earlier work
# [4] = In vitro human plasma stability by HPLC; type: in vitro ADME; conditions: for stability in human plasma: up to 24 h, HPLC
# [5] = target: ALK (Homo sapiens, UniProt Q9UM73); test: 33P HotSpot kinase profiling, ALK; type: biochemical; conditions: ALK vs ACK1
# [6] = target: ACK1 Tyr284 phosphorylation in LAPC4 cells (Homo sapiens, UniProt Q07912); test: ACK1 Tyr284 autophosphorylation by immunoblotting in EGF-treated LAPC4 cells; type: cell-based; conditions: 5 μM, immunoblot (Figure 3a)
# [7] = system: LNCaP cells; test: Cell growth, viable cells by trypan blue exclusion, LNCaP; type: cell-based; conditions: Homo sapiens, 72 h, read-out: IC50 cell growth LNCaP
# [8] = system: A549 lung cancer cells; conditions: at 10 μM; cited from earlier work
# [9] = target: T1, ACK1; test: 33P HotSpot assay; type: biochemical; conditions: IC50 (33P Hotspot assay)
# [10] = standards; cited from earlier work
# T1 sequence (Q07912 whole entry): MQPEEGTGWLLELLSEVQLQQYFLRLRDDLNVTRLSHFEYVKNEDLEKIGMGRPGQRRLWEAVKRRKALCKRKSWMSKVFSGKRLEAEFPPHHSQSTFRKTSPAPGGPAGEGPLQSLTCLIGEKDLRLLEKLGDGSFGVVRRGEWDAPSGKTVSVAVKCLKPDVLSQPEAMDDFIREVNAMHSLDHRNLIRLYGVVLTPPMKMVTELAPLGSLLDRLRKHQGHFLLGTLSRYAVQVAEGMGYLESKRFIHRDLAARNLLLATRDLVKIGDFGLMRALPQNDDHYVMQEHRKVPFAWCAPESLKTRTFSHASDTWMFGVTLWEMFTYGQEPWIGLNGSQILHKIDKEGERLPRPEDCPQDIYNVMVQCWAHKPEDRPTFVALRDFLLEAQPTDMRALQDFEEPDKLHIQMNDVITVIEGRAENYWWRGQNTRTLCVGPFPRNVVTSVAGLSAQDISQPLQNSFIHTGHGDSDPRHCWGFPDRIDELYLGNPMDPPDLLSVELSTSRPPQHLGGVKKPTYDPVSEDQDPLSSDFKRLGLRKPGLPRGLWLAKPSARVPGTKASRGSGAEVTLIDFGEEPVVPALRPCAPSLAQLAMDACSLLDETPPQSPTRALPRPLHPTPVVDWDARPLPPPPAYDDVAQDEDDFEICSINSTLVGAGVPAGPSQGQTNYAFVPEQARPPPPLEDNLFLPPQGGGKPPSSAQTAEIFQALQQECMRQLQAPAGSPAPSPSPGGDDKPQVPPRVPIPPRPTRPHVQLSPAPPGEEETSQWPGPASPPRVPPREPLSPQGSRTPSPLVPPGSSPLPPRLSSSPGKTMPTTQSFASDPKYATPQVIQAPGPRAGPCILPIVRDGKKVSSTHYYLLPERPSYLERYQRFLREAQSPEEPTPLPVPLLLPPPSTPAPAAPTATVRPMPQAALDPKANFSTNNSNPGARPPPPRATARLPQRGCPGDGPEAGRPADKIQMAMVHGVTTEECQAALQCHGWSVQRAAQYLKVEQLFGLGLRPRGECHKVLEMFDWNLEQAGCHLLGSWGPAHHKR
# ACK1 Tyr284 phosphorylation in LAPC4 cells, sequence (Q07912 whole entry): as above
# ALK, sequence (Q9UM73 19-1620): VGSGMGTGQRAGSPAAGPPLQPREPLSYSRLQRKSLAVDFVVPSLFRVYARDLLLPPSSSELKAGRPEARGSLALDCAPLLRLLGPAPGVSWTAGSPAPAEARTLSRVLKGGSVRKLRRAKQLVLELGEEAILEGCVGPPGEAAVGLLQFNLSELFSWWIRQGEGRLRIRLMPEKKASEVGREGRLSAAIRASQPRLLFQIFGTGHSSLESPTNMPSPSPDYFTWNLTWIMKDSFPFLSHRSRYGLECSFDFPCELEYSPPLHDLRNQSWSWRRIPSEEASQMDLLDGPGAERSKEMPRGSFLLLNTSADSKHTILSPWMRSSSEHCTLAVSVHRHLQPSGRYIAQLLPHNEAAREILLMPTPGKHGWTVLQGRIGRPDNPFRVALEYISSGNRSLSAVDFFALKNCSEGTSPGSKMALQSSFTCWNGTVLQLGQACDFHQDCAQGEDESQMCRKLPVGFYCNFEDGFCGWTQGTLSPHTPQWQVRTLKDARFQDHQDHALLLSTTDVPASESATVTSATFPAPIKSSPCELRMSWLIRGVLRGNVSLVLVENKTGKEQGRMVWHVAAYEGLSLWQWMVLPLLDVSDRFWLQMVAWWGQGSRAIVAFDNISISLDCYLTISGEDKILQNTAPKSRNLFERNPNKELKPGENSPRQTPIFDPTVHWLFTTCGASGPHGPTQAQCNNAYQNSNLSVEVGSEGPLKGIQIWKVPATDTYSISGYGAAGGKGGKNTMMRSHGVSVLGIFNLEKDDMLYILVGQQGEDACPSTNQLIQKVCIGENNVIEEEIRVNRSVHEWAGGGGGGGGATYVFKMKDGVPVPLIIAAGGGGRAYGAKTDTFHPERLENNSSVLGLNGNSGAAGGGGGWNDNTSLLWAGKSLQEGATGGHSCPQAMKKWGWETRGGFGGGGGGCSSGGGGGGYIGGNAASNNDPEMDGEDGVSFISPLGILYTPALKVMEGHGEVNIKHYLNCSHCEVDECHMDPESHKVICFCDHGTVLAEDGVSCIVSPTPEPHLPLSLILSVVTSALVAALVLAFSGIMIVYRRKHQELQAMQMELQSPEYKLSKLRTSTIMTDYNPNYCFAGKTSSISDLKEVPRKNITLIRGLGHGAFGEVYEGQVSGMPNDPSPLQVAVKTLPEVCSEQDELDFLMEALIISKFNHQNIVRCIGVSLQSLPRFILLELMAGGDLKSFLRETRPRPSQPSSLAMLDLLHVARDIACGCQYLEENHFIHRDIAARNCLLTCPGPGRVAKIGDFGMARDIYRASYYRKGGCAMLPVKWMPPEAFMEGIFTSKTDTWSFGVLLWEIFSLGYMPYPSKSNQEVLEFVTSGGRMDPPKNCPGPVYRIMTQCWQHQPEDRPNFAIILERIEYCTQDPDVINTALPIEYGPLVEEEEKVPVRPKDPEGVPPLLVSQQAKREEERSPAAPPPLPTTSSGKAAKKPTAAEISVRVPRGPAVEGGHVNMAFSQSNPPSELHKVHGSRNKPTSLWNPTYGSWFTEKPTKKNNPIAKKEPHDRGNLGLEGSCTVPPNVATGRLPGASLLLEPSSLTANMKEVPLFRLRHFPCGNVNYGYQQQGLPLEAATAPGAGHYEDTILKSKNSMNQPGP
compound,measurement,setting,value
"5-[(2-Chloro-6-fluorophenyl)carbamoyl]-N^2-[(4-methoxyphenyl)amino]-N^4-[(tetrahydrofuran-2-yl)methyl]pyrimidine-2,4-diamine [9q]",% Inhibition @ 10 μM (ELISA),"[1]; compound 10 μM, average of three or more determinations",68 ± 10%
c1ccc(-c2oc3ncnc(NC[C@@H]4CCCO4)c3c2-c2ccccc2)cc1 [1b],IC50,[2],4000 nM
COC(C)(C)CCn1nc(Nc2c(C)cccc2C)c2cnc(Nc3ccccc3)nc21 [2a],IC50,[3],20 nM
"Oc1ccc(NNc2ncc(F)c(NCC3CCCO3)n2)cc1F (stereo not shown) [9t, 5-Fluoro-N^2-[(4-hydroxy-3-fluorophenyl)amino]-N^4-[(tetrahydrofuran-2-yl)methyl]pyrimidine-2,4-diamine Hydrochloride]",inhibition at 10 µM,[1],41 ± 6.3%
"Cc1cnc(NNc2ccc(O)c(F)c2)nc1NCC1CCCO1 (stereo not shown) [9u, 5-Methyl-N^2-[(4-hydroxy-3-fluorophenyl)amino]-N^4-[(tetrahydrofuran-2-yl)methyl]pyrimidine-2,4-diamine Hydrochloride]",inhibition at 10 µM,[1],49 ± 2.8%
"CN1CCN(c2ccc(Nc3ncc(Cl)c(NC[C@H]4CCCO4)n3)cc2)CC1 [(R)-9b, (R)-5-Chloro-N^2-[4-(4-methylpiperazin-1-yl)phenyl]-N^4-[(tetrahydrofuran-2-yl)methyl]pyrimidine-2,4-diamine]",half-life at 250 µM,"[4]; human, human plasma",> 6 h
same,stability in human plasma,[4],stable in human plasma
same,fold difference of ALK IC50 versus ACK1 IC50,[5],3 fold
same,ACK1 activation (Tyr284 autophosphorylation) after EGF,[6],almost complete loss of ACK1 activation
"CN1CCN(c2ccc(Nc3ncc(Cl)c(NC[C@@H]4CCCO4)n3)cc2)CC1 [(S)-9b, (S)-5-Chloro-N^2-[4-(4-methylpiperazin-1-yl)phenyl]-N^4-[(tetrahydrofuran-2-yl)methyl]pyrimidine-2,4-diamine]",IC50,[7],1800 nM
same,stability in human plasma,[4],stable in human plasma
same,ACK1 activation (Tyr284 autophosphorylation) after EGF,[6],almost complete loss of ACK1 activation
COc1cc(N2CCN(C)CC2)ccc1Nc1ncc2c(n1)N(C)c1ccccc1C(=O)N2 [compound 3],A549 lung cancer cell growth,[8],inhibits
"COc1cc(N2CCC(N3CCN(C)CC3)CC2)ccc1Nc1ncc(Cl)c(Nc2ccccc2S(=O)(=O)C(C)C)n1 [compound 5, reference compound]",ACK1 activation (Tyr284 autophosphorylation) after EGF,[6],significant reduction in ACK1 activation
"O=C(O)CCC(=O)N1CCN(c2ccc(Nc3ncc(C(=O)Nc4c(F)cccc4Cl)c(NCC4CCCO4)n3)cc2)CC1 (stereo not shown) [compound 22, 4-(4-{4-[[5-((2-Chloro-6-fluorophenyl)carbamoyl)-4-(((tetrahydrofuran-2-yl)methyl)amino)pyrimidin-2-yl]amino]phenyl}piperazin-1-yl)-4-oxobutanoic Acid]",IC50,[9],28 nM
same,inhibition at 10 µM,[1],89 ± 5.6%
Cl.O=C(O)Cc1ccc(Nc2ncc(Cl)c(NCC3CCCO3)n2)cc1 (stereo not shown) [compound 23],ACK1 inhibition in ELISA,[1],moderate ACK1 inhibition
Cl.O=C(O)CCc1ccc(Nc2ncc(Cl)c(NCC3CCCO3)n2)cc1 (stereo not shown) [compound 24],ACK1 inhibition in ELISA,[1],moderate ACK1 inhibition
CN(C)CCNC(=O)CCc1ccc(Nc2ncc(Cl)c(NCC3CCCO3)n2)cc1.Cl (stereo not shown) [compound 26],ACK1 inhibition in ELISA,[1],moderate ACK1 inhibition
Cl.O=C(O)CCc1ccc(Nc2ncc(Br)c(NCC3CCCO3)n2)cc1 (stereo not shown) [compound 28],ACK1 inhibition in ELISA,[1],moderate ACK1 inhibition
Cl.O=C(O)CCC(=O)N1CCN(c2ccc(Nc3ncc(Br)c(NCC4CCCO4)n3)cc2)CC1 (stereo not shown) [compound 29],ACK1 inhibition in ELISA,[1],significant ACK1 inhibition
CCN(CC)CCOC(=O)c1ccc(N)cc1 [procaine],reported stability in human plasma,[10],unstable
